From patent US20020015940A1, “Method of gene expression screening” (priority 2000, published 2002)

What was measured:
E. coli = test: toxicity response in the microbial system; assay type: cell-based; conditions: system of the present invention; consistent with mammalian cell studies
Protocol: (§1) 2.0% cultures were grown from saturated overnight cultures at […] with shaking at 260 rpm for 3 hours. A 4.0% inoculum was mixed with […] top agar (10 g/L NaCl, 5.0 g/L yeast extract, 10 g/L tryptone, 7.0 g/L agar) and 10 ml was layered on 150 mm petri dishes containing LB and ampicillin. 10 μl of each drug to be tested was spotted onto the plate and incubated at 35° C. overnight. Colonies were screened when plated onto LB plates containing compounds that are known to activate oxidative stress genes, paraquat and hydrogen peroxide.
(§2) As the drug diffuses through the media, it created a concentration gradient.

[1] = tested on: E. coli harboring the stress probes (soxS and sodA); test: high throughput 96-well dose-response of stress probes; assay type: cell-based; conditions: for promoter probes turned on (mode of action): FIG. 5A and 5B
Protocol: 4. 0% cultures of E. coli harboring the stress probes were grown from a saturated overnight culture in 250 ml shake flasks containing 25 ml LB media and 100 μg/ml ampicillin at 35° C. with shaking at 260 rpm until the optical density reached 0.8 at 600 nm. 100 μl aliquots of culture were added to each well of a 96-well plate, along with 10 μl of various concentrations of the drug to be tested and incubated overnight. Experiments were run in duplicate. Fluorescence intensity and optical density measurements were taken using a Wallac 1420 VICTOR multilabel counter.
To test whether the procedure of Example 4 would work in a quantitative high throughput format, an experiment was conducted where the anti-tumor drug DNR was serially diluted and dose-response tested in a 96-well plate. For comparison, a similar experiment was conducted with paraquat.

[2] = tested on: pCRA11, sodA promoter probe construct; test: agar plate spotting, zone of induction (green halo); assay type: cell-based, E. coli; conditions: higher and varied concentrations of drugs spotted on plate, overnight
Protocol: as §1, §2

acnA promoter probe = test: stress probe-GFP fusion fluorescence after oxidative stress; assay type: cell-based, E. coli; conditions: varying concentrations of stressor, 4 hours post-stress
Source text: (§3) Using GenBank to obtain the genomic sequence for each of the oxidative stress response genes, PCR primers are designed to amplify the promoter region. Generally the target for amplification was approximately 300 base pairs and encompasses the sequence upstream from the native translational start site. […] The entire promoter region flanked by incorporated restriction sites was cloned in frame with GFP on a plasmid. The stress probes were then transformed into E. coli.
(§4) Cells containing each stress probe-GFP fusion were cultured to early log phase, stressed with varying concentrations of paraquat or H2O2, and the fluorescence intensity measured at 4 hours post-stress. Due to the lethality of the higher concentrations of stresses, dividing by optical density (OD) normalized the fluorescence intensity values.

dps promoter probe = test: as above; assay type: cell-based, E. coli; conditions: varying concentrations of stressor, 4 hours post-stress
Source text: as §3, §4

recA promoter probe = test: as above; assay type: cell-based, E. coli; conditions: varying concentrations of stressor, 4 hours post-stress
Source text: as §3, §4

sodA promoter probe = test: as above; assay type: cell-based, E. coli; conditions: varying concentrations of stressor, 4 hours post-stress
Source text: as §3, §4

zwf promoter probe = test: as above; assay type: cell-based, E. coli; conditions: varying concentrations of stressor, 4 hours post-stress
Source text: as §3, §4

sodA-GFP stress probe = test: rate of change of GFP signal; assay type: cell-based, E. coli; conditions: continuous stress by bolus of paraquat, FIG. 6
Source text: The rate of change of the GFP signal measures the rate of the stress protein induction. This experiment compares the response of the sodA promoter to stresses in the form of a bolus of paraquat in one culture and a transient exposure to hyperoxia in another. A control culture consisting of uninduced sodA:GFP was included for comparison. […] An uninduced culture was included for comparison purposes.
The disadvantages of GFP as a reporter gene are its lag time for fluorescence (approximately 90 minutes) and extraordinary stability. One way to compensate for these is to measure the rate of change of the GFP fluorescence, which is possible using an LED-based sensor that permits continuous in situ measurements. The cell specific rate of change of GFP normalized to optical density is then a measure of the rate of gene expression of the stress protein.

CCOC(=O)NC1=C(N2CC2)C(=O)C(NC(=O)OCC)=C(N2CC2)C1=O [AZQ, diaziquone]
rank order of toxicity response (E. coli): MeDZQ, DZQ, and AZQ, were ranked in decreasing order of toxicity response

COc1cccc2c1C(=O)c1c(O)c3c(c(O)c1C2=O)C[C@@](O)(C(C)=O)C[C@@H]3O[C@H]1C[C@H](N)[C@H](O)[C@H](C)O1 [DNR, daunorubicin]
promoter probes turned on (mode of action) ([1]; 96-well plate): turning on soxS and sodA | toxicity to cells beyond the concentration of maximal response ([1]; above 20 μM, 96-well plate): becomes toxic and kills cells | concentration at which maximal response is observed ([1]; serial dilution in 96-well plate, overnight, FIG. 5A): 20 µM

O=C1C=C(N2CC2)C(=O)C=C1N1CC1 [DZQ]
rank order of toxicity response (E. coli): MeDZQ, DZQ, and AZQ, were ranked in decreasing order of toxicity response

COc1cccc2c1C(=O)c1c(O)c3c(c(O)c1C2=O)C[C@@](O)(C(=O)CO)C[C@@H]3O[C@H]1C[C@H](N)[C@H](O)[C@H](C)O1 [Doxorubicin, doxorubicin]
induction of sodA promoter probe compared with induction of recA [2]: stronger induction of sodA than its induction of recA

CC1=C(N2CC2)C(=O)C(C)=C(N2CC2)C1=O [MeDZQ, methyl diaziridinequinone]
rank order of toxicity response (E. coli): MeDZQ, DZQ, and AZQ, were ranked in decreasing order of toxicity response

OO [hydrogen peroxide]
fluorescence intensity normalized by optical density, acnA promoter probe (acnA promoter probe): no inducible response | fluorescence intensity normalized by optical density, dps promoter probe (dps promoter probe): dose dependent response | fluorescence intensity normalized by optical density, recA promoter probe (recA promoter probe): dose dependent response | fluorescence intensity normalized by optical density, sodA promoter probe (sodA promoter probe): no inducible response | fluorescence intensity normalized by optical density, zwf promoter probe (zwf promoter probe): no inducible response

C[n+]1ccc(-c2cc[n+](C)cc2)cc1 [paraquat]
fluorescence intensity normalized by optical density, acnA promoter probe (acnA promoter probe): dose dependent response | fluorescence intensity normalized by optical density, dps promoter probe (dps promoter probe): do not show a dose dependent response and are only inducible when exposed to higher paraquat concentrations | fluorescence intensity normalized by optical density, recA promoter probe (recA promoter probe): do not show a dose dependent response and are only inducible when exposed to higher paraquat concentrations | fluorescence intensity normalized by optical density, sodA promoter probe (sodA promoter probe): dose dependent response | fluorescence intensity normalized by optical density, zwf promoter probe (zwf promoter probe): dose dependent response | promoter probes turned on (mode of action) ([1]; 96-well plate): turning on soxS and sodA | shape of dose response ([1]; serial dilution in 96-well plate, overnight, FIG. 5B): monotonically increasing response | rate of sodA expression (GFP derivative) (sodA-GFP stress probe): continual gene expression of sodA
